Measured values taken from patent US20090012148A1, “REDUCING CELLULAR CHOLESTEROL LEVELS AND/OR TREATING OR PREVENTING PHOSPHOLIPIDOSIS” (priority 2005, published 2009).
Entries after “also recorded” stand apart in the source; their conditions may differ.

Experiments:
CT60 cells [1] = test: Filipin binding assay, average filipin intensity and staining pattern; assay type: cell-based, Chinese hamster; details: 10 μM; for Average filipin intensity Fraction of control: 14 hit compounds from primary library
Procedure: We developed assays for correction of the NPC phenotype in CHO cell lines using filipin, which binds to non-esterified cholesterol and has been used to visualize the free cholesterol content in NPC cells. The initial screens were carried out in CT60 cells, which express a mutated hamster NPC1 protein and a gain of function mutation in SCAP (42). These cells cannot traffic LDL-derived cholesterol out of late endosomes, and large amounts of cholesterol accumulate in LSO compartments. FIGS. 1A-B show images of filipin staining in a control CHO cell line, TRVb1 (45) (FIG. 1A) and in CT60 cells (FIG. 1B). It can be seen that the CT60 cells show much more filipin staining than control cells and that the fluorescence in CT60 cells is concentrated in peri-nuclear organelles.
For screening, images were acquired using a Discovery-1 automated microscopy system with a 10× objective and corrected for background and shading as described in Methods. Two thresholds were set for filipin staining, a low threshold to include all cell areas, and a high threshold for the strong filipin staining in the peri-nuclear LSOs. The threshold values were set for each plate from analysis of 64 images in 32 wells of untreated CT60 cells. […] In developing the low threshold, we compared the outlines based on the thresholded cell images with transmitted light images, and the thresholds provided good agreement with the transmitted light cell boundaries.
As a simple measure of the intensity of filipin staining, we measured the filipin intensity per pixel above the threshold. The conditions of filipin labeling (time and concentration) were adjusted to optimize the discrimination between the CT60 cells and control TRVb1 cells. […] The quality of the assay for screening is expressed in terms of a statistical parameter Z′(46):
Using the above screening technique, we screened a library of 14,956 compounds added to cells for 16 hours at a final concentration of 10 μM, using a single well for each compound. Prior to application of the compounds, cells were grown in normal tissue culture medium containing 10% FBS, so the LSOs were filled with cholesterol (FIG. 1B). The cells were then imaged and analyzed using the average filipin intensity assay and the LSO compartment assay. In general, the two analyses identified similar compounds that reduced the filipin labeling.
Compound addition: The library compounds were formatted for screening in the Rockefeller University High Throughput Screening Facility. Cells were treated with the compounds from the chemical library one day after plating. We added […] of each compound (5 mM stock in DMSO) to 25 μl of screening Medium S composed of medium A supplemented with 1% FBS and 20 mM 4-(2-hydroxyethyl)-1-pipiperazine ethane sulphonic acid (HEPES) in Falcon 384-well V-bottomed polypropylene plates using a Packard MiniTrak™ robotic liquid handling system. To obtain ˜10 μM final concentration, 23 μl of the premixed compounds were dispensed into the plates containing cells and […] of culture medium A. For primary screening, 352 test compounds were added to each plate, and the remaining 32 wells were used as a control with only DMSO added. All plates were incubated with compounds for 16 h at 37° C. Plates were then washed three times with phosphate buffered saline pH 7.4 (PBS) using a Bio-Tek Elx405 plate washer (Bio-Tek Instruments Inc., Winooski, Vt.). For each wash cycle, […] of PBS was dispensed followed by aspiration with a residual volume of 16 μl per well. Finally, cells were fixed with 1.5% PFA in PBS for 20 min at room temperature, followed by 3 more washes with PBS.
Fluorescence labeling. To the fixed cells, filipin was added at a final concentration of 50 μg/ml in PBS for 45 m at room temperature to label free cholesterol. Cells were finally washed three times with PBS, and images were acquired immediately after labeling. […]

CT60 cells [2] = test: Gas chromatography cholesterol assay; assay type: cell-based, Chinese hamster; details: 10 μM, FC = free cholesterol
Procedure: The cholesterol lowering effect of the 14 hit compounds identified by filipin labeling was measured by an alternative chemical method that involved GC separation of solvent-extracted cellular lipids (43). CT60 cells were treated with compounds at 10 μM under the same conditions as in the screening assays. Since the GC assay estimates FC content per cell, the values are compared to the average filipin intensity assay (Table 1).
CT60 or CT43 cells were plated on day 1 in 6-well plates. Hit compounds were added to the cells at 10 μM concentration. Cells were incubated for 24 h. Cellular lipids were extracted with hexane: iso-propyl alcohol (3:2 v/v). The lipid extracts were dried and re-suspended in hexane followed by separation on gas chromatograph using β-sitosterol as an internal standard.
Procedure: CT60 cells were plated in 6-well plates in Ham's F-12/1.176 g/L sodium bicarbonate/2 g/L glucose/10% FBS. Following 24 h incubation, cells were treated with 10 μM of each compounds, medium being replaced with Ham's F-12/1.176 g/L sodium bicarbonate/2 g/L glucose/5.5% FBS/20 mM HEPES. The change of the medium in the wells was performed to have experimental conditions similar to those used for the screening once chemical compounds were added to the cells. After 18 h treatment with compounds, cells were washed twice with Hank's balanced salt solutions (HBSS). Cellular lipids were extracted with hexane/isopropyl alcohol (3:2 v/v) (43) dried and resuspended in hexane followed by separation on a gas chromatograph (GC) using following conditions. A Hewlett Packard GC model HP 5890 series II (Palo Alto, Calif.) equipped with a flame ionization detector, split-splitless injector, and 15 m×0.53 mm HP-5 capillary column coated with […] film thickness of 5% phenyl methyl siloxane was used to separate free cholesterol. The injection temperature was maintained at 255° C. and oven temperature was held isothermally at 260° C. using helium as a mobile phase at 30 mL/min flow rate. The free cholesterol (FC) was quantified using beta-sitosterol as internal standard to correct for lipid losses during extraction.

normal human fibroblasts [3] = test: Filipin staining of normal human fibroblasts; assay type: cell-based; details: data not shown
Procedure: These cells show rearrangements that may indicate that cholesterol has been redirected to a different compartment or that the morphology of the LSOs themselves has been changed (compound 1-c-3, FIG. 4C).
(§1) Normal human fibroblasts (GM5659E) were grown in MEM with 1% P/S and 10% FBS. For microscopy, fibroblasts were plated in normal growth medium on glass-bottomed 35 mm dishes or in 384-well plates.

normal human fibroblasts [4] = test: Filipin LSO ratio assay on U18666A-treated normal human fibroblasts; assay type: cell-based; details: 250 nM or 500 nM, 20 hours
Procedure: FIG. 12 depicts the effect of 7 compounds (2-a-1, 2-a-3, 2-a-8, 2-a-9, 2-a-12, 2-a-13, 2-a-15) from the second library on U18666A-treated normal human fibroblasts. Normal human fibroblasts were plated in 384 well plates and grown in regular growth medium for 24 h, after which the cells were treated with compound U18666A (500 nM or 250 nM) in screening medium for 4 h. The cells were then further incubated overnight with hit compounds (10 μM) in the continued presence of U18666A. Finally, cells were washed three times with PBS, fixed with 1.5% PFA, washed with PBS and stained with filipin. Images were acquired using the Discovery1 microscope at 10× magnification and analyzed for the LSO ratio. Solid horizontal lines are the mean for U18666A-treated cells at each concentration, and the dotted horizontal lines indicate −3 SD.
as §1
Normalized values were obtained by dividing the values in the presence of each compound by the values obtained in presence of solvent control for each plate. Similar methods were used to analyze the effects of compounds on human fibroblasts treated with U18666A to induce cholesterol retention in LSOs. […]

Row | SMILES | Average filipin intensity Fraction of control (CT60 cells [1]) | μg FC/μg Protein by GC Fraction of control (CT60 cells [2]) | also measured
1 | Nc1c(Sc2ccccc2)cc(Sc2ccccc2)c2c1C(=O)c1ccccc1C2=O [Compound 1-a-1] | 0.87 ± 0.04 Fraction of control | 1.02 ± 0.03 Fraction of control | –
2 | C=CCN1C(=O)C(=CC=Cc2ccc(N(C)C)cc2)SC1=S [Compound 1-a-2] | 0.88 ± 0.04 Fraction of control | 1.15 ± 0.05 Fraction of control | –
3 | CCOc1ccc(NN=C2C(=O)N(c3nc(-c4ccccc4)cs3)N=C2c2ccccc2)cc1 [Compound 1-a-3] | 0.95 ± 0.04 Fraction of control | 1.27 ± 0.07 Fraction of control | –
4 | COc1ccccc1NN=C1C(=O)N(c2nc(-c3ccc(Cl)cc3)cs2)N=C1C [Compound 1-a-4] | 1.01 ± 0.04 Fraction of control | 0.87 ± 0.07 Fraction of control | –
5 | O=C1C(=Cc2ccc(-c3ccc(Cl)c(Cl)c3)o2)C=C(c2ccccc2)N1c1ccc(O)cc1 [Compound 1-a-5] | 0.89 ± 0.04 Fraction of control | 1.18 ± 0.06 Fraction of control | –
6 | O=C1C(=Cc2ccc(-c3ccc(Cl)c(Cl)c3)o2)C=C(c2ccccc2)N1c1ccccc1O [Compound 1-a-6] | 0.92 ± 0.04 Fraction of control | 1.37 ± 0.01 Fraction of control | –
7 | O=C1C(=Cc2ccc(-c3cc(Cl)ccc3Cl)o2)C=C(c2ccccc2)N1c1ccc(O)cc1 [Compound 1-a-7] | 0.89 ± 0.04 Fraction of control | 1.04 ± 0.13 Fraction of control | –
8 | O=C1C(=Cc2ccc(-c3ccc(Br)cc3)o2)C=C(c2ccccc2)N1c1ccc(O)cc1 [Compound 1-a-8] | 0.90 ± 0.04 Fraction of control | 1.31 ± 0.10 Fraction of control | –
9 | O=C1Nc2ccccc2C1=NNc1nc(N2CCCCC2)nc(N2CCCCC2)n1 [Compound 1-a-9] | 0.99 ± 0.04 Fraction of control | 0.86 ± 0.07 Fraction of control | –
10 | Cc1cc([N+](=O)[O-])ccc1NC(=O)CC1SC(=Nc2ccccc2)N(c2ccccc2)C1=O (stereo not shown) [Compound 1-a-10] | 0.96 ± 0.04 Fraction of control | 1.23 ± 0.08 Fraction of control | –
11 | CCOC(=O)c1sc(NC(=O)c2ccccc2C)nc1-c1ccccc1 [Compound 1-a-11] | 0.90 ± 0.04 Fraction of control | 0.82 ± 0.07 Fraction of control | –
12 | CN(C)c1cc(NN=Cc2cccs2)nc(N(C)C)n1 [Compound 1-a-12] | 0.91 ± 0.04 Fraction of control | 0.73 ± 0.03 Fraction of control | –
13 | O=C(O)c1ccc(N2C(=O)C(=Cc3ccc(-c4ccc(Br)cc4)o3)C=C2c2ccccc2)cc1 [Compound 1-a-13] | 0.97 ± 0.04 Fraction of control | 1.54 ± 0.11 Fraction of control | –
14 | Clc1ccccc1N1N=C(C=Cc2cccs2)CC1c1cccs1 (stereo not shown) [Compound 1-b-2] | – | – | change in filipin intensity (CT60 cells [1]): increase in filipin intensity; also recorded: increased filipin intensity
15 | CC(C)(C)c1ccc(C(=O)Nc2ccc(-c3nc4ccccc4o3)c(O)c2)cc1 [Compound 1-b-4] | – | – | change in filipin intensity (CT60 cells [1]): significant increase; also recorded: increased filipin-intensity; also recorded: increased filipin intensity; morphological change of the filipin staining pattern (CT60 cells [1]): filamentous or tubular staining; also recorded: induced morphological changes; also recorded: bright swirls of filipin staining; effect on filipin staining compared with CT60 cells (normal human fibroblasts [3]): similar
16 | CCN(CC)C(=O)CCN1C(=O)C(=Cc2ccc(F)cc2)SC1=S [Compound 1-c-2] | – | – | change in filipin intensity (CT60 cells [1]): no significant change; morphological change of the filipin staining pattern (CT60 cells [1]): more compact LSOs; also recorded: morphological changes
17 | CC1=NN(c2ccccc2)C(=O)C1=NNc1ccccc1C(=O)O [Compound 1-c-3] | – | – | morphological change of the filipin staining pattern (CT60 cells [1]): peri-nuclear clusters of LSOs in mutant cells to become more dispersed; also recorded: morphological changes; also recorded: large network of apparently tubular organelles
18 | CCN(CC)CCO[C@H]1CC[C@@]2(C)C(=CC[C@@H]3[C@@H]2CC[C@]2(C)C(=O)CC[C@@H]32)C1 [Compound U18666A] | – | – | cholesterol accumulation by filipin staining and LSO compartment ratio (normal human fibroblasts [4]): significant increase
